Data published in US20250032488A1, “METHODS OF TREATMENT USING LOU064” (NOVARTIS AG, priority 2021, published 2025).
Like-named read-outs stand apart in the source and are kept apart here.

Key:
[1] = system: BALB/c mice; assay: Passive cutaneous anaphylaxis (PCA) in mice: skin edema; format: in vivo; details: doses as low as 3 mg/kg, two oral administrations
Experimental: (§1) LOU064 was tested in a murine PCA model. The model used BALB/c mice aged 8-10 weeks of age. For passive sensitization with hapten-specific IgE, mice under isoflurane anesthesia were given an intradermal injection of 20 μl anti-DNP IgE in saline into the right ear and 20 μl of saline into the left ear. For FccR-specific PCA, mice were given a low dose of 3 ng anti-DNP IgE. For maximal PCA mice were given a high dose of 25 ng anti-DNP IgE. LOU064 was administered p.o. in a volume of 5 ml/kg body weight. A first dose was administered 4 hours after sensitization on the evening before challenge. The next morning, 2 hours prior to hapten challenge, mice were given a second oral dose of LOU064.
Mice were challenged with hapten 2 hours after the second dose by placing them into a heated chamber. Animals were then injected i.v. with 100 μg of the hapten DNP-HSA (dinitrophenyl-human serum albumin) in 200 μl of 2% Evans blue diluted in PBS. The mice were then returned to their cage for exactly 30 minutes. Thirty minutes later, animals were then anesthetized with isoflurane and bled retro-orbitally using EDTA coated blood collection tubes for analysis of compound exposure. […] Twenty-four hours later 80 μl of formalin solution were transferred to a clear flat bottom 96 well plate and the optical absorption was read at 620 nm. […] Statistical significance was determined by ANOVA. […]

[2] = Concentrations of LOU064 in blood, PCA study; format: in vivo, mice; details: BALB/c, mouse, whole blood, oral, 2.5 hours after second dose, low-dose IgE sensitization, Mean ± SD (n = 5)
Experimental: as §1
Mice were challenged with hapten 2 hours after the second dose by placing them into a heated chamber. Animals were then injected i.v. with 100 μg of the hapten DNP-HSA (dinitrophenyl-human serum albumin) in 200 μl of 2% Evans blue diluted in PBS. The mice were then returned to their cage for exactly 30 minutes. Thirty minutes later, animals were then anesthetized with isoflurane and bled retro-orbitally using EDTA coated blood collection tubes for analysis of compound exposure. The mice were then sacrificed by cervical dislocation. A 6 mm punch biopsy was taken from both the left and the right ear and placed into 100 μl of formalin. The skin biopsies were incubated at 80° C. overnight to extract the dye. Twenty-four hours later 80 μl of formalin solution were transferred to a clear flat bottom 96 well plate and the optical absorption was read at 620 nm. Analysis was performed by subtracting the left ear (saline) from the right ear (IgE) to determine how much dye was released into the skin tissue of the biopsy. Statistical significance was determined by ANOVA. Spleens were removed for BTK occupancy analysis.
(§2) Analysis of blood level: Blood samples were taken as denoted and compound measurement was performed. Blood samples were spiked with a structurally similar internal standard mixed with acetonitrile (4 volumes) and centrifuged at ˜ 4000 rpm (4° C.). Supernatant was then transferred into a microtiter plate. An aliquot of each sample was injected into an LC-MS/MS system for determination of concentrations of the parent molecule.
The concentrations of LOU064 present in mouse blood, 2.5 hours after the second compound dose are shown for the low-dose IgE sensitization in Table 1.

[3] = LOU064 levels in blood, RPA study; format: in vivo, mice
Experimental: Female C57BI6 mice (Charles River, France), 8-10 weeks of age, were used. The back of the mice was shaved 24 hours prior to the skin injections. This allowed any potential irritation of the skin to resolve. The Arthus reaction was triggered two hours after compound dosing in the dose-response study or at the timepoints noted in the time-course study. To elicit the Arthus reaction, 50 μl of PBS (control site) or polyclonal rabbit anti-ovalbumin IgG at a concentration of 30 μg in PBS (C6534, Sigma) was injected i.d. into the dorsal skin. The intradermal injection was followed immediately by an i.v. injection of 200 μl ovalbumin (20 mg/kg) in saline (05450 Fluka). Three hours after the injection of the ovalbumin the mice were killed, bled for monitoring of the compound concentration and the spleens removed for BTK occupancy measurement. The thickness of the injected control and anti-ovalbumin IgG skin sites was measured using a digital caliper, and the thickness of the anti-ovalbumin IgG injected sites minus the saline control sites were then calculated for the mice in all treatment groups.
as §2, with “Blood” for “Analysis of blood level: Blood”

[4] = system: LAD2 cells; assay: FcER-induced mast cell degranulation in LAD2 cells; format: cell-based; details: Homo sapiens, n=3, read-out: IC50, IgE/FcER-induced mast cell degranulation (β-tryptase)
Text: Rationale and method: The human mastocytosis cell line LAD2 expresses FcERI and upon crosslinking of the receptor the cells degranulate and release inflammatory mediators like β-tryptase and hexosaminidase (Wernersson et al. 2014, Immunology; 14 (7): 478-94). The assay involves 4-hydroxy-3-iodo-5-nitrophenylacetic acid (NIP) haptenized bovine serum albumin (BSA) and the NIP-specific chimeric IgE antibody JW8 (Neuberger, M.S. et al. (1985), Nature 314 (6008), pp 268-70. doi: 10.1038/314268a0). The LAD2 cells were sensitized with JW8 IgE antibody and then incubated with serial compound dilutions for 30 minutes at 37° C. Then degranulation was triggered by adding haptenized NIP-BSA to crosslink the FcER. After one hour, supernatants were collected and analyzed for B-tryptase levels.

[5] = system: human primary skin-derived mast cells; assay: Histamine release from skin-derived human mast cells; format: cell-based; details: Mast cell, n=2 donors
Experimental: Rationale and method: Skin tissue was used as a source of primary human tissue mast cells. Surgical skin discard samples were provided under informed consent and collected by the University Hospital Basel in accordance with the Swiss Human Research Act and approval of the responsible ethic committee (Ethikkommission Nordwest und Zentralschweiz). Skin tissue was dissociated and intact mast cells were prepared according to the protocol of Kulka and Metcalfe (Kulka et al. 2010, current protocols in Immunology; SUPPL. 90:1-11). The isolated mast cells were characterized phenotypically and used for a degranulation assay as described above ((Neuberger, M.S. et al. (1985), Nature 314 (6008), pp 268-70. doi: 10.1038/314268a0). The mast cells were sensitized with JW8 IgE antibody and then pre-incubated with serial compound dilutions for 30 minutes at 37° C. Then degranulation was triggered by adding haptenized NIP-BSA to crosslink the FcERI. After 30 minutes, supernatants were collected and analyzed for histamine with an HTRF-based immunoassay (Cisbio Bioassays).

[6] = Co-administration with oral contraceptives; format: in vivo
Text: Therefore, in a preferred embodiment, LOU064 is co-administered with oral contraceptives.

[7] = system: FccR1 mediated basophil activation; details: cited from earlier work

## C=CC(=O)N(C)CCOc1c(N)ncnc1-c1cc(F)cc(NC(=O)c2ccc(C3CC3)cc2F)c1C [LOU064, N-(3-(6-amino-5-(2-(N-methylacrylamido)ethoxy)pyrimidin-4-yl)-5-fluoro-2-methylphenyl)-4-cyclopropyl-2-fluorobenzamide]
[1]
  Inhibition of the anaphylactic response (PCA): near complete inhibition
[2]; 3 mg/Kg p.o.
  concentration at 2.5 h: 7 ± 2 nM
[2]; 10 mg/Kg p.o.
  concentration at 2.5 h: 35 ± 14 nM
[2]; 30 mg/Kg p.o.
  concentration at 2.5 h: 111 ± 56 nM
[2]; 100 mg/Kg p.o.
  concentration at 2.5 h: 488 ± 371 nM
[3]; female, C57BI6, mouse, whole blood, oral, 3 mg/Kg single p.o., 5 hours after dosing
  concentration at 5 h: 2.04 nM
[3]; female, C57BI6, mouse, whole blood, oral, 10 mg/Kg single p.o., 5 hours after dosing, Mean ± SD
  concentration at 5 h: 2.87 ± 0.58 nM
[3]; female, C57BI6, mouse, whole blood, oral, 30 mg/Kg single p.o., 5 hours after dosing, Mean ± SD
  concentration at 5 h: 25.2 ± 20.9 nM
[3]; female, C57BI6, mouse, whole blood, oral, 100 mg/Kg single p.o., 5 hours after dosing, Mean ± SD
  concentration at 5 h: 140 ± 63.9 nM
[3]; female, C57BI6, mouse, whole blood, single oral dose of 30 mg/kg, 5 hours post-dose, Mean ± SD (n = 5)
  concentration at 5 h: 28.4 ± 18.2 nM
[3]; female, C57BI6, mouse, whole blood, single oral dose of 30 mg/kg, 8 hours post-dose, Mean ± SD (n = 5)
  concentration at 8 h: 9.2 ± 6.7 nM
[3]; single oral dose of 30 mg/kg, 19 hours post-dose
  Concentration in blood: Below LLOQ
[4]
  IC50: 7 nM
[5]
  IC50: 16.5 nM
[6]
  Impact on exposure and efficacy of oral contraceptives (ethinylestradiol or levonorgestrel): without a major impact
[7]; MAD, 10 mg q.d., last day of dosing
  Trough level inhibition of CD63: 80%
[7]; MAD, 200 mg b.i.d
  Inhibition of CD203c+ basophils: 67%
[7]; MAD, 400 mg q.d.
  Inhibition of CD203c+ basophils: 63%
[7]; MAD, daily dose greater than or equal to 50 mg, day 1-12 and several days beyond
  Inhibition of blood basophil activation measured by CD63 expression: full inhibition
[7]; MAD, greater than or equal to 100 mg q.d., last day of dosing
  Trough inhibition of CD63: greater than 97%
[7]; SAD, 200 mg cohort, at 8h
  Inhibition of CD203c+ basophil activation marker: up to 79.4%
[7]; SAD, doses of 60 mg
  Inhibition of basophil activation measured by CD63: > 89%
[7]; SAD, higher doses, 24 h post dose
  Inhibition of basophil activation measured by CD63: ~100%
